Patent US12617762B2, “Carboxy derivatives with antiinflamatory properties” (Sitryx Therapeutics Limited, priority 2019, dated 2026)
Where two headings read alike, the source gives them in different places.

How the values were obtained:
[1] = test system: IL-1β cytokine output from THP-1s; assay: THP-1 AlphaLISA IL-1β cytokine inhibition assay; type: cell-based; conditions: Homo sapiens
Outline: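 IL-1β release by AlphaLISA, expressed as % inhibition against +/− LPS controls on each plate. Differentiation: PMA, 72 h. Sequence: 30 min compound pre-treatment, LPS 24 h, Nigericin 1 h before supernatant harvest, all at 37° C./5% CO2.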

[2] = test system: IL-6 cytokine output from THP-1s; assay: THP-1 AlphaLISA IL-6 cytokine inhibition assay; type: cell-based; conditions: Homo sapiens
Method: The cytokine inhibition profiles of compounds of formula (I) were determined in a differentiated THP-1 cell assay. All assays were performed in RPMI-1640 growth medium (Gibco), supplemented with 10% fetal bovine serum (FBS; Gibco), 1% penicillin-streptomycin and 1% sodium pyruvate unless specified otherwise. The IL-1β cytokine inhibition assay was run in a background of differentiated THP-1 cells as described below. All reagents described were from Sigma-Aldrich unless specified otherwise. Compounds were prepared as 10 mM DMSO stocks.
THP-1 cells were expanded as a suspension up to 80% confluence in appropriate growth medium. Cells were harvested, suspended, and treated with an appropriate concentration of phorbol 12-myristate 13-acetate (PMA) over a 72 hr period (37° C./5% CO2).
Following 72 hrs of THP-1 cell incubation, cellular medium was removed and replaced with fresh growth media containing 1% of FBS. Working concentrations of compounds were prepared separately in 10% FBS treated growth medium and pre-incubated with the cells for 30 minutes (37° C./5% CO2). Following the 30 minute compound pre-incubation, THP-1s were treated with an appropriate concentration of LPS and the cells were subsequently incubated for a 24 hr period (37° C./5% CO2). An appropriate final concentration of Nigericin was then dispensed into the THP-1 plates and incubated for 1 hour (37° C./5% CO2) before THP-1 supernatants were harvested and collected in separate polypropylene 96-well holding plates.
Reagents from an IL-1β and IL-6 commercial kit (Perkin Elmer) were prepared and run according to the manufacturer's instructions. Subsequently, fluorescence signal detection in a microplate reader was measured (EnVision® Multilabel Reader, Perkin Elmer).
Percentage inhibition was calculated per cytokine by normalising the sample data to the high and low controls used within each plate (+/− LPS respectively).

[3] = test system: NRF2 (nuclear factor erythroid 2-related factor 2); assay: NRF2 +/-GSH activation assay (DiscoverX PathHunter NRF2 translocation kit, U2OS cells); type: cell-based; conditions: for NRF2 activation +GSH Emax / NRF2 activation −GSH Emax: normalised to DMF high control
Outline: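 Activation is expressed as percent of plate DMF (high) versus no-DMF (low) controls, from luminescence after 6 h compound exposure at 37 °C of U2OS PathHunter cells. The +GSH condition used compound pre-incubated 30 min in 6 mM working GSH; −GSH cells received compound directly.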

[4] = Hepatocyte stability assay, mouse; type: in vitro ADME; conditions: mouse, hepatocytes; for hepatocyte CLint at 10 μM: Hepatocyte stability Clint; for half-life at 10 μM: Hepatocyte stability T½
Outline: (§1)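 Thawed cryopreserved hepatocytes (viability >70%) at 0.5×10^6 cells/mL in Leibovitz buffer were preincubated at 37° C, then given 10 μM compound (0.1% DMSO) in duplicate. Samples at 0–60 min were quenched in acetonitrile and analysed by LC-MS/MS. Intrinsic clearance and half-life were derived from ln % remaining versus time.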

[5] = Hepatocyte stability assay, human; type: in vitro ADME; conditions: human, hepatocytes; for hepatocyte CLint at 10 μM: Hepatocyte stability Clint; for half-life at 10 μM: Hepatocyte stability T½
Outline: as §1

[6] = THP-1, differentiated THP-1 cells, LPS then nigericin
[7] = +GSH, 30 minute compound-GSH pre-incubation, read-out: NRF2 activation +GSH EC50
[8] = −GSH, U2OS PathHunter cells, 6 hours compound treatment, read-out: NRF2 activation −GSH EC50
[9] = THP-1, differentiated THP-1 cells, data from repeated experiments
[10] = differentiated THP-1 cells, LPS then nigericin

Compound	IC50 [1, 6] [µM]	IC50 [2, 6] [µM]	EC50 [3, 7] [µM]	NRF2 activation +GSH Emax ([3]; +GSH) [%]	EC50 [3, 8] [µM]	NRF2 activation −GSH Emax ([3]; −GSH) [%]	hepatocyte CLint at 10 μM [4] [µL/min/1e6 cells]	half-life at 10 μM [4] [min]	hepatocyte CLint at 10 μM [5] [µL/min/1e6 cells]	half-life at 10 μM [5] [min]	IC50 [1, 9] [µM]	IC50 [2, 9] [µM]	IC50 [2, 10] [µM]	IC50 ([1]; THP-1, Table 3, head to head comparison of exo vs endo double bond compounds) [µM]
C=C(Cc1noc(CCCCCCCC)n1)C(=O)O [Example 3, 2-((5-octyl-1,2,4-oxadiazol-3-yl)methyl)acrylic acid]	14.6	4.4	6.9	199	3.7	218	117	12	110	15	–	–	–	–
C=C(Cc1nc(CCCCCCC)no1)C(=O)O [Example 6, 2-((3-heptyl-1,2,4-oxadiazol-5-yl)methyl)acrylic acid]	24.7	26	29.1	170	22.9	190	185	9	38	31	–	–	–	–
C=C(Cc1nc(C(C)CCCCCC)no1)C(=O)O (stereo not drawn) [Example 8, 2-((3-(octan-2-yl)-1,2,4-oxadiazol-5-yl)methyl)acrylic acid]	16.8	14	28.1	167	20.9	175	143	10	28	51	–	–	–	–
C=C(Cc1nc(C2(c3ccc(Cl)cc3)CC2)no1)C(=O)O [Example 10, 2-((3-(1-(4-chlorophenyl)cyclopropyl)-1,2,4-oxadiazol-5-yl)methyl)acrylic acid]	10	26.2	45.2	53	36.8	67	125	8	27	47	–	–	–	–
C=C(Cc1nc(CCCCCCC(F)(F)C(F)(F)F)no1)C(=O)O [Example 17, 2-((3-(7,7,8,8,8-pentafluorooctyl)-1,2,4-oxadiazol-5-yl)methyl)acrylic acid]	19.3	5.3	8.7	140	5.1	179	105	12	42	34	–	–	–	–
C=C(Cc1nc(Cc2ccc(-c3ccc(Cl)cc3)cc2)no1)C(=O)O [Example 19, 2-((3-((4′-chloro-[1,1′-biphenyl]-4-yl)methyl)-1,2,4-oxadiazol-5-yl)methyl)acrylic acid]	77	3.3	7.4	140	2.5	206	> 460	< 3	63	20	–	–	–	–
C=C(Cc1nc(Cc2ccc(CCCC)cc2)no1)C(=O)O [Example 20, 2-((3-(4-butylbenzyl)-1,2,4-oxadiazol-5-yl)methyl)acrylic acid]	14.7	2.7	3	146	2.9	206	427	4	70	24	–	–	–	–
C=C(Cc1nc(C2(c3ccc(C(F)(F)F)cc3)CC2)no1)C(=O)O [Example 22, 2-((3-(1-(4-(trifluoromethyl)phenyl)cyclopropyl)-1,2,4-oxadiazol-5-yl)methyl)acrylic acid]	10.9	–	60.2	62	48.7	69	42	41	20	84	8.7	43.5	–	–
C=C(Cc1nc([C@H](C)CCCCCC)no1)C(=O)O [Example 40, (R)-2-((3-(octan-2-yl)-1,2,4-oxadiazol-5-yl)methyl)acrylic acid]	27	18.1	27.5	81	25.3	168	82	20	21	66	–	–	–	–
C=C(Cc1nc([C@@H](C)CCCCCC)no1)C(=O)O [Example 43, (S)-2-((3-(octan-2-yl)-1,2,4-oxadiazol-5-yl)methyl)acrylic acid]	36.9	23.1	27.4	81	30.4	166	142	12	33	42	–	–	–	–
C=C(Cc1nc(C2(c3cc(F)c(Cl)c(F)c3)CC2)no1)C(=O)O [Example 135, 2-((3-(1-(4-chloro-3,5-difluorophenyl)cyclopropyl)-1,2,4-oxadiazol-5-yl)methyl)acrylic acid]	13.2	–	–	–	–	–	159	8	31	45	–	–	17.9	–
C=C(Cc1nc(C2(c3ccc(C(F)(F)F)c(Cl)c3)CC2)no1)C(=O)O [Example 136, 2-((3-(1-(3-chloro-4-(trifluoromethyl)phenyl)cyclopropyl)-1,2,4-oxadiazol-5-yl)methyl)acrylic acid]	2.9	–	–	–	–	–	79	16	44	32	–	–	3.9	–
CCCCCCCCc1noc(/C=C(\C)C(=O)O)n1 [Example 166, (E)-2-methyl-3-(3-octyl-1,2,4-oxadiazol-5-yl)acrylic acid]	> 31.6	–	–	–	–	–	204	7	260	6	–	–	31.5	> 31.6
